From patent US20210220331A1, “INHIBITORS OF IRES-MEDIATED PROTEIN SYNTHESIS” (The Regents of the University of California, priority 2016, published 2021)

Columns and labels:
Assay type in all cases: cell-based
[1] = test system: human cyclin D1 IRES; test: Dicistronic IRES mRNA reporter assay (firefly luciferase), cyclin D1 IRES; conditions: 293T cells, 50 nM, 24 h
[2] = test system: human cyclin D1 IRES; test: as above; conditions: for Cyclin D1 (decrease): fold decrease in PP242-induced cyclin D1 IRES activity: LN229, relative to values obtained with parent compound C11
Protocol: Western blot and quantitative RT-PCR analyses were performed as previously described (19). For Western blotting, cells or tissues were lysed in RIPA (lysis) buffer containing protease inhibitor cocktail and phosSTOP phosphatase inhibitor cocktail (Roche) and extracts resolved by SDSPAGE. Proteins were transferred to PVDF membranes and incubated with the indicated antibodies. For IRES reporter assays, the indicated mRNA reporters were cotransfected into cells with pSVβ-galactosidase to normalize for transfection efficiency as described previously (16). Cells were harvested 18 h following transfection and Renilla, firefly and β-galactosidase activities determined using the Dual-Glo Luciferase and β-galactosidase assay systems (Promega).
(B) Schematic diagrams of the dicistronic constructs used in this study. Constructs used are pRF, pRCD1F, which contains the human cyclin D1 IRES, pRmycF, containing the human c-myc IRES, pRp27F, containing the human p27Kip1 IRES and pRECMVF, containing the IRES from encephalomyocarditis virus. (C) Relative Renilla and firefly luciferase activities obtained from LN229 GBM cells transfected with the indicated constructs in the absence or presence of the inhibitor C11. The mean and +SD are shown for three independent experiments. […] (D) RNA-pull down assays utilizing biotinylated cyclin D1 or c-MYC IRES RNAs. Cytoplasmic extracts of LN229 cells treated with C11 (50 nM) as indicated were incubated with biotinylated cyclin D1 or c-MYC IRES RNAs and precipitated with streptavidin-Sepharose beads. Input and bound fractions were analyzed by immunoblotting using hnRNP A1 antibodies. […] RT-PCR measurements were performed in quadruplicate and the mean and +S.D. are shown. […] (F) Top panel, LN229 cells were treated with C11 as indicated and RT-PCR splicing analysis for Max exon 5 performed as described in the Experimental Methods section. Middle panel, LN229 cells treated with C11 (50 nM) as indicated, were lysed and immunoprecipitated using either eIF-4E or control IgG antibodies. Bound CCND1 or c-MYC RNAs were detected via RT-PCR. The mean and +S.D. are shown for three independent experiments. Bottom panel, cyclin D1 and c-MYC protein levels from the indicated GBM cell lines in the absence or presence of C11 at 24 h following treatment. C11 specifically blocks c-Myc IRES-mediated translation initiation by disrupting the ITAF hnRNP A1-IRES interaction.
Several dicistronic IRES mRNA reporter constructs were utilized, shown in FIG. 1B, in which the indicated IRES sequences were inserted within the intercistronic region. LN229 cells transiently transfected with these constructs were assayed for Renilla and firefly luciferase activities, which are readouts of cap-dependent and IRES-mediated translation initiation, respectively (16). […]

[3] = biological target: T1, hnRNP A1 binding to cyclin D1 or c-MYC IRES RNAs (Homo sapiens, UniProt P09651); test: RNA-pull down assay with biotinylated cyclin D1 or c-MYC IRES RNAs
T1 construct: endogenous in cells; host or cells: LN229 glioblastoma cells; 293T cells
T1 sequence (P09651 whole entry): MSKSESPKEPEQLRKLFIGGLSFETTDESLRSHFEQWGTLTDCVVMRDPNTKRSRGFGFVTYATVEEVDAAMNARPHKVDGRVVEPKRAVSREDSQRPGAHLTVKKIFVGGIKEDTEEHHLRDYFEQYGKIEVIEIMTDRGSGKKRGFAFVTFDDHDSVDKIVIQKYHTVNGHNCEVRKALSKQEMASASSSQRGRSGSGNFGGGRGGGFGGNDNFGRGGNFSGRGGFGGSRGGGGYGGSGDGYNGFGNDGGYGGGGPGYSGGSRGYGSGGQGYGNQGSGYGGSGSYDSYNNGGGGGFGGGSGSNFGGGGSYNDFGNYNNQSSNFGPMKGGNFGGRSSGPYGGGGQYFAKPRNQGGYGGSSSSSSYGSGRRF
Protocol: For immunopurification of eIF4E and bound RNA (21), cells were lysed in buffer containing 50 mM Tris-HCl (pH 7.4), 300 mM NaCl, 0.5% NP-40, 10 mM NaF, 1 mM sodium orthovanidate, 1 mM PMSF, 1.5% aprotinin and SUPERase-IN (ThermoFisher Scientific), 0.025 units/ml, using a Dounce homogenizer at 4° C. Extracts were cleared by centrifugation and immunoprecipitated with eIF4E or control IgG. Beads were washed and obtained RNA was subjected to quantitative RTPCR. For quantitative RT-PCR, extraction of RNA was performed using Trizol (ThermoFisher). Total RNA was then quantified and integrity assessed using an Agilent 2100 Bioanalyzer (Agilent Technology). Total RNA was reverse transcribed with random primers using the RETROscript Kit from ThermoFisher. SYBR Green quantitative PCR was performed in triplicate in 96-well optical plates on an ABI Prism 7000 Sequence Detection System (Life Technologies) according to the manufacturer's instructions. Primer sequences for CCND1, c-MYC and actin are available upon request. […]
(B) Schematic diagrams of the dicistronic constructs used in this study. […] Input and bound fractions were analyzed by immunoblotting using hnRNP A1 antibodies. […] Bound CCND1 or c-MYC RNAs were detected via RT-PCR. […]

[4] = test system: LN229 cells; test: Combination analysis with PP242 (XTT, combination index) in LN229; conditions: combination of PP242 and analog, CI=1.0 dose additive, CI<0.5 synergy, CI<0.3 strong synergy
Source text: Fold decrease in either PP242-induced cyclin D1 or c-MYC IRES activity in LN229 relative to values obtained with the parent compound C11 are shown for each analog. […] CI=1.0 (dose additive), CI<0.5 (synergy), CI<0.3 (strong synergy).
The structure-activity relationships (SAR) for C11 and related compounds were investigated by synthesizing and testing the analogs listed in Table 1. […] The degree of apoptotic cell death following co-treatment with analog and PP242 was also monitored.

SMILES | basal cyclin D1 IRES activity [1] | Cyclin D1 (decrease): fold decrease in PP242-induced cyclin D1 IRES activity [2] | ability to block cyclin D1 or c-MYC IRES-hnRNP A1 interactions relative to C11 ([3]; 293T cell extracts) | CI ED50, 1:100 (combination index) [4] | mTOR inhibitor-induced cyclin D1 IRES activity ([2]; LN229 cells, cotreatment with rapamycin or PP242) | cyclin D1 IRES activity ([2]; LN229 cells, inhibitor alone) | hnRNP A1 binding to cyclin D1 or c-MYC IRES RNAs ([3]; extracts of LN229 cells treated with 50 nM)
COc1ccc(CN2C(=O)c3ccccc3C2=O)c(OC)c1 [IRES-J007, 2-((2,4-Dimethoxyphenyl)methyl)isoindoline-1,3-dione] | reduced IRES activity | 4.97 ± 0.13 fold | improved ability | 0.42 |  |  | 
COc1ccc(CN2C(=O)C(Cl)=C(Cl)C2=O)c(OC)c1 [Compound C11, reference compound] | reduced IRES activity | 1.0 fold |  | 0.50 | significantly inhibited | significantly inhibited | markedly reduced hnRNP A1 binding
